In paper PMC10578352, “Identification of a Protein Arginine Methyltransferase 7 (PRMT7)/Protein Arginine Methyltransferase 9 (PRMT9) Inhibitor” (Journal of Medicinal Chemistry, 2023):
pIC50: −log10 of the molar value.

Target: T1, PRMT7 (Homo sapiens, UniProt Q9NVM4)
T1 construct: PRMT7 (residues 2–692, C-terminus); with an N-terminal His-tag; His (N); purchased Reaction Biology Corporation
T1 sequence (Q9NVM4 2-692): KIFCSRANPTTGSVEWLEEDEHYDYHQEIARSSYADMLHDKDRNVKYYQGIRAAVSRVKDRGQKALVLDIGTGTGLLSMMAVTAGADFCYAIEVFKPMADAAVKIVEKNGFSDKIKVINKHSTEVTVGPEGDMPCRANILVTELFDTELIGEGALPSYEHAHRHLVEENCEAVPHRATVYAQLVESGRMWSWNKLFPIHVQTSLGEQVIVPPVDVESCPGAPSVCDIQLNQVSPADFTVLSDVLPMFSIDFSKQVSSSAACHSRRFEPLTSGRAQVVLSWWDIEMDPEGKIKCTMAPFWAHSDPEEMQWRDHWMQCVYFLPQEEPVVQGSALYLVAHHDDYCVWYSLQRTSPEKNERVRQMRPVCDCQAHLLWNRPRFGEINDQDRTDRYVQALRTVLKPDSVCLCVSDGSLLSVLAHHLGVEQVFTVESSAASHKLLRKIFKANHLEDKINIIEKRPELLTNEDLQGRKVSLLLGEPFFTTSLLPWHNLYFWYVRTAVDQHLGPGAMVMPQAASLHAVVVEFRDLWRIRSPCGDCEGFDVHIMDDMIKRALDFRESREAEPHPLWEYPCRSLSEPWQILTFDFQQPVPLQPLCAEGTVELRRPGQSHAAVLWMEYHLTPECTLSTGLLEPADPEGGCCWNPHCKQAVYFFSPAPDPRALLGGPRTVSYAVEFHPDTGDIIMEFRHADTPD
Assay: HotSpot radioisotope-based filter assay, PRMT7
Type: biochemical
Conditions: 5 μM GST-GAR, 3H-SAM 1 μM
Method: Then, ^3H-SAM (final concentration of 1 μM) was delivered into the reaction mixture to initiate the reaction. After incubation for 60 min at 30 °C, the reaction mixture was delivered to filter-paper for detection (as assessed by scintillation). Data were analyzed using Excel and GraphPad Prism 6.0 software (GraphPad Software Inc., San Diego, CA) for IC50 curve fits using sigmoidal dose vs response - variable slope (four parameters) equations.

- pIC50: 5.25
Compound: COC(=O)c1cc(O)c2cc(NC(=O)NCCCNC(=N)NC[C@H]3O[C@@H](n4cnc5c(N)ncnc54)[C@H](O)[C@@H]3O)cc(C(F)(F)F)c2c1 [1j, Methyl 6-(3-(3-(3-(((2R,3S,4R,5R)-5-(6-Amino-9H-purin-9-yl)-3,4-dihydroxytetrahydrofuran-2-yl)methyl)guanidino)propyl)ureido)-4-hydroxy-8-(trifluoromethyl)-2-naphthoate]
